Source: patent US10294202B2, “Pyrrolidinones as herbicides” (FMC Corporation, priority 2013, dated 2019)

Legend:
[1] = tested on: giant foxtail; assay: Test A pre-/postemergence herbicide test; format: in vivo, Setaria faberii
Outline: (§1)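 Visual 0–100 ratings (100 = complete control) made about 10 days after treatment, greenhouse-held plants compared with untreated controls. Treatments: postemergence sprays on one- to two-leaf plants (2–10 cm tall) and preemergence directed soil sprays after planting in loam–sand, chemicals formulated in non-phytotoxic solvent containing surfactant.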

[2] = tested on: crabgrass, large; assay: Test C pre-/postemergence herbicide test; format: in vivo, Digitaria sanguinalis
Outline: (§2)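 Greenhouse plants scored visually against untreated controls 13–15 days after treatment, 0 = no effect, 100 = complete control. Test chemicals in a non-phytotoxic solvent with surfactant were applied either to soil (loam/sand) at planting or to foliage of 1- to 4-leaf plants, 2–18 cm tall.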

[3] = tested on: pigweed; assay: Test A pre-/postemergence herbicide test; format: in vivo, Amaranthus retroflexus
Outline: as §1

[4] = tested on: ryegrass, Italian; assay: Test C pre-/postemergence herbicide test; format: in vivo, Lolium multiflorum
Outline: as §2

[5] = tested on: nutsedge, yellow; assay: Test C pre-/postemergence herbicide test; format: in vivo, Cyperus esculentus
Outline: as §2

[6] = tested on: foxtail, giant; assay: Test C pre-/postemergence herbicide test; format: in vivo, Setaria faberii
Outline: as §2

[7] = tested on: johnsongrass; assay: Test C pre-/postemergence herbicide test; format: in vivo, Sorghum halepense
Outline: as §2

[8] = tested on: blackgrass; assay: Test C pre-/postemergence herbicide test; format: in vivo, Alopecurus myosuroides
Outline: as §2

[9] = tested on: ragweed; assay: Test C pre-/postemergence herbicide test; format: in vivo, Ambrosia elatior
Outline: as §2

[10] = tested on: wheat; assay: Test A pre-/postemergence herbicide test; format: in vivo, Triticum aestivum; conditions: Postemergence
Outline: as §1

[11] = tested on: sedge, umbrella; assay: Test B flooded paddy test; format: in vivo, Cyperus difformis; conditions: 1000 g ai/ha, Flood; scale of 0 to 100 where 0 is no effect and 100 is complete control
Outline: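 Plants were grown to the 2-leaf stage, then pots were flooded to 3 cm above the soil and compound was applied directly into the paddy water, with that depth held throughout. After 13 to 15 days in a greenhouse, injury was rated visually against untreated controls on a 0 to 100 scale (100 = complete control).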

[12] = Postemergence, 125 g ai/ha, 0 to 100 scale, 0 no effect, 100 complete control
[13] = Postemergence, 500 g ai/ha, 0 to 100 scale (0 no effect, 100 complete control)
[14] = Preemergence, 125 g ai/ha, visual rating on 0 to 100 scale (0 no effect, 100 complete control)
[15] = preemergence, 500 g ai/ha, 0 to 100 scale
[16] = Postemergence, 31 g ai/ha, scale 0 (no effect) to 100 (complete control)
[17] = Postemergence, 62 g ai/ha, scale 0 to 100 (0 no effect, 100 complete control)
[18] = Postemergence, 125 g ai/ha, scale 0 to 100 (0 no effect, 100 complete control)
[19] = Postemergence, 250 g ai/ha, scale 0 to 100 (0 no effect, 100 complete control)
[20] = Preemergence, 31 g ai/ha, scale 0 to 100, 0 is no effect and 100 is complete control
[21] = Preemergence, 62 g ai/ha, scale 0 to 100
[22] = Preemergence, 125 g ai/ha, scale 0 to 100 (0 no effect, 100 complete control)

Cc1ccccc1NC(=O)C1C(=O)NCC1c1cccc(C(F)(F)F)c1 (racemic) [Compound 109]
20: Plant response rating, Ryegrass, Italian [4, 22] | Plant response rating, Wheat ([10]; 125 g ai/ha, 0 to 100 scale, 0 no effect, 100 complete control)
70: Plant response rating, Crabgrass, Large [2, 19] | Plant response rating (scale of 0 to 100), Ryegrass, Italian ([4]; Preemergence, 250 g ai/ha) | Plant response rating, Foxtail, Giant [6, 19] | Plant response rating (scale of 0 to 100), Johnsongrass ([7]; Preemergence, 250 g ai/ha)
10: Plant response rating, Crabgrass, Large [2, 16] | Plant response rating, Crabgrass, Large [2, 17] | Plant response rating, Johnsongrass [7, 21] | Plant response rating (scale of 0 to 100), Ragweed ([9]; Preemergence, 250 g ai/ha)
50: Plant response rating, Foxtail, Giant [6, 18]
90: Plant response rating, Foxtail, Giant [1, 12] | Plant response rating, Foxtail, Giant [1, 13] | Foxtail, Giant plant response rating [1, 14] | Plant response rating, Foxtail, Giant [1, 15] | Foxtail, Giant plant response rating [6, 20] | Plant response rating, Blackgrass [8, 22]
0: Plant response rating, Pigweed [3, 12] | Plant response rating, Pigweed [3, 13] | Pigweed plant response rating [3, 14] | Plant response rating, Pigweed [3, 15] | Plant response rating, Ryegrass, Italian [4, 16] | Plant response rating, Ryegrass, Italian [4, 17] | Plant response rating, Ryegrass, Italian [4, 18] | Plant response rating, Ryegrass, Italian [4, 19] | Ryegrass, Italian plant response rating [4, 20] | Plant response rating, Nutsedge, Yellow [5, 16] | Plant response rating, Nutsedge, Yellow [5, 17] | Plant response rating, Nutsedge, Yellow [5, 18] | Plant response rating, Nutsedge, Yellow [5, 19] | Nutsedge, Yellow plant response rating [5, 20] | Plant response rating, Nutsedge, Yellow [5, 22] | Plant response rating, Johnsongrass [7, 16] | Plant response rating, Johnsongrass [7, 17] | Plant response rating, Johnsongrass [7, 18] | Plant response rating, Johnsongrass [7, 19] | Johnsongrass plant response rating [7, 20] | Plant response rating, Blackgrass [8, 16] | Plant response rating, Blackgrass [8, 17] | Plant response rating, Blackgrass [8, 18] | Plant response rating, Blackgrass [8, 19] | Blackgrass plant response rating [8, 20] | Plant response rating, Ragweed [9, 16] | Plant response rating, Ragweed [9, 17] | Plant response rating, Ragweed [9, 18] | Ragweed plant response rating [9, 20] | Plant response rating, Ragweed [9, 21] | Plant response rating, Ragweed [9, 22]
5: Plant response rating, Nutsedge, Yellow [5, 21] | Plant response rating (scale of 0 to 100), Nutsedge, Yellow ([5]; Preemergence, 250 g ai/ha) | Plant response rating, Ragweed [9, 19]
80: Plant response rating, Sedge, Umbrella [11]
95: Plant response rating, Foxtail, Giant [6, 21] | Plant response rating (scale of 0 to 100), Blackgrass ([8]; Preemergence, 250 g ai/ha)
100: Plant response rating, Crabgrass, Large [2, 21] | Plant response rating, Crabgrass, Large [2, 22] | Plant response rating (scale of 0 to 100), Crabgrass, Large ([2]; Preemergence, 250 g ai/ha) | Plant response rating (scale of 0 to 100), Foxtail, Giant ([6]; Preemergence, 250 g ai/ha)
98: Crabgrass, Large plant response rating [2, 20] | Plant response rating, Foxtail, Giant [6, 22]
40: Plant response rating, Crabgrass, Large [2, 18] | Plant response rating, Ryegrass, Italian [4, 21] | Plant response rating, Johnsongrass [7, 22]
15: Plant response rating, Foxtail, Giant [6, 17]
60: Plant response rating, Foxtail, Giant [6, 16] | Plant response rating, Blackgrass [8, 21] | Plant response rating, Wheat ([10]; 500 g ai/ha, 0 to 100 scale (0 no effect, 100 complete control))
